In assay [1] the test system is Mus musculus. As to the kind of experiment: Cardioprotective activity in transgenic B6 mouse expressing cynomolgus monkey CETP assessed as increase in HDL-cholesterol level at 10 mg/kg, po BID measured after 24 hrs of first dose. Type of assay: functional.
Assay [2] deals with T1, Cholesteryl ester transfer protein (Homo sapiens, UniProt P11597).
T1 sequence (P11597 whole entry): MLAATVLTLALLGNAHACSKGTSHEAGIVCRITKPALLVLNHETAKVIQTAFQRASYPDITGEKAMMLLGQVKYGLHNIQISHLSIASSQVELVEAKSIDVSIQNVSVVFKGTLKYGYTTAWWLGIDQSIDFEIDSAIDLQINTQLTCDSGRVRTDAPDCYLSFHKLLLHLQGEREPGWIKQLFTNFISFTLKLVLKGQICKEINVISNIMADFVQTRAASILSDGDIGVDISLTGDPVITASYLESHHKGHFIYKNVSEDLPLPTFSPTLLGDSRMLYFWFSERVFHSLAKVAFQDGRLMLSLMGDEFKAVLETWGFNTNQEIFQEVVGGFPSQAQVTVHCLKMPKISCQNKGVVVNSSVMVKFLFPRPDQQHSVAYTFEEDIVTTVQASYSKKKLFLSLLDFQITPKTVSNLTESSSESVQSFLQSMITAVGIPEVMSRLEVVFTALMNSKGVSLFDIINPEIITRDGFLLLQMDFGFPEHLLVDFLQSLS
Kind of assay: Inhibition of CETP-mediated neutral lipid transfer by fluorometric analysis.

For `COc1cc(F)c(C(C)C)cc1-c1ccc(C(F)(F)F)cc1CN1C(=O)O[C@H](c2cc(C(F)(F)F)cc(C(F)(F)F)c2)[C@@H]1C` [ANACETRAPIB], the Activity in assay [1] was found to be 28 mg/dL.

As to `COc1cc(F)c(C(C)C)cc1-c1ccc(Br)cc1CN1C(=O)O[C@H](c2cc(C(F)(F)F)cc(C(F)(F)F)c2)[C@@H]1C`, the Activity in assay [1] was found to be 23 mg/dL. The molecule also had an IC50 in assay [2] of 19.8 nM.

With `COc1cc(F)c(C(C)C)cc1-c1ccc(C(C)(C)C)cc1CN1C(=O)O[C@H](c2cc(C(F)(F)F)cc(C(F)(F)F)c2)[C@@H]1C`, in assay [1], the Activity came to 21 mg/dL. Half-maximal inhibition in assay [2] (IC50) was put at 24.9 nM.

Take `COc1cc(F)c(C(C)C)cc1-c1ccc(S(C)(=O)=O)cc1CN1C(=O)O[C@H](c2cc(C(F)(F)F)cc(C(F)(F)F)c2)[C@@H]1C`: the midpoint of inhibition in assay [2], the IC50, lay at 33.5 nM.

On to `COc1cc(F)c(C(C)C)cc1-c1ccc(SC(F)(F)F)cc1CN1C(=O)O[C@H](c2cc(C(F)(F)F)cc(C(F)(F)F)c2)[C@@H]1C`, for which the Activity in assay [1] was 12.4 mg/dL. The same molecule registered an IC50 in assay [2] of 19.6 nM.

`COc1cc(F)c(C(C)C)cc1-c1ccc(S(=O)(=O)C(C)C)cc1CN1C(=O)O[C@H](c2cc(C(F)(F)F)cc(C(F)(F)F)c2)[C@@H]1C` came in with an IC50 in assay [2] of 2600 nM.

Take `COc1cc(F)c(C(C)C)cc1-c1ccccc1CN1C(=O)O[C@H](c2cc(C(F)(F)F)cc(C(F)(F)F)c2)[C@@H]1C`: the IC50 in assay [2] is 31.2 nM.

Consider `COc1cc(F)c(C(C)C)cc1-c1ccc([N+](=O)[O-])cc1CN1C(=O)O[C@H](c2cc(C(F)(F)F)cc(C(F)(F)F)c2)[C@@H]1C`, for which the Activity in assay [1] was 21.5 mg/dL. The same molecule returned an IC50 in assay [2] of 13.3 nM.

On to `COc1cc(F)c(C(C)C)cc1-c1ccc(N)cc1CN1C(=O)O[C@H](c2cc(C(F)(F)F)cc(C(F)(F)F)c2)[C@@H]1C`, for which the IC50 in assay [2] is 296 nM.

In assay [2], `CCCSc1ccc(-c2cc(C(C)C)c(F)cc2OC)c(CN2C(=O)O[C@H](c3cc(C(F)(F)F)cc(C(F)(F)F)c3)[C@@H]2C)c1` displayed an IC50 of 1230 nM.

In the case of `COc1cc(F)c(C(C)C)cc1-c1ccc(S(=O)(=O)C(F)(F)F)cc1CN1C(=O)O[C@H](c2cc(C(F)(F)F)cc(C(F)(F)F)c2)[C@@H]1C`, half-maximal inhibition in assay [2] (IC50) was put at 27.1 nM.

Consider `COc1cc(F)c(C(C)C)cc1-c1ccc(C2=CCCC2)cc1CN1C(=O)O[C@H](c2cc(C(F)(F)F)cc(C(F)(F)F)c2)[C@@H]1C`, for which, in assay [2], the concentration for half-maximal inhibition (IC50) came to 254 nM.

In assay [2], `CCCS(=O)(=O)c1ccc(-c2cc(C(C)C)c(F)cc2OC)c(CN2C(=O)O[C@H](c3cc(C(F)(F)F)cc(C(F)(F)F)c3)[C@@H]2C)c1` gave an IC50 of 6930 nM.

Consider `COc1cc(F)c(C(C)C)cc1-c1ccc(C#N)cc1CN1C(=O)O[C@H](c2cc(C(F)(F)F)cc(C(F)(F)F)c2)[C@@H]1C`, for which, in assay [1], the Activity came to 14.8 mg/dL. For the same molecule, half-maximal inhibition in assay [2] (IC50) required 23.3 nM.

In the case of `COc1cc(F)c(C(C)C)cc1-c1ccc(C(C)(C)F)cc1CN1C(=O)O[C@H](c2cc(C(F)(F)F)cc(C(F)(F)F)c2)[C@@H]1C`, the Activity in assay [1] was 23.2 mg/dL. This molecule showed an IC50 in assay [2] of 18 nM.

In the case of `COc1cc(F)c(C(C)C)cc1-c1ccc(SC)cc1CN1C(=O)O[C@H](c2cc(C(F)(F)F)cc(C(F)(F)F)c2)[C@@H]1C`, the Activity in assay [1] was 16.4 mg/dL. The same molecule returned an IC50 in assay [2] of 16.2 nM.

Take `COc1cc(F)c(C(C)C)cc1-c1ccc(Cl)cc1CN1C(=O)O[C@H](c2cc(C(F)(F)F)cc(C(F)(F)F)c2)[C@@H]1C`: in assay [1], the Activity is 12.7 mg/dL. The midpoint of inhibition in assay [2], the IC50, lay at 16.5 nM.

Molecule `COc1cc(F)c(C(C)C)cc1-c1ccc(SC(C)C)cc1CN1C(=O)O[C@H](c2cc(C(F)(F)F)cc(C(F)(F)F)c2)[C@@H]1C` had an IC50 in assay [2] of 689 nM.

Take `COc1cc(F)c(C(C)C)cc1-c1ccc(I)cc1CN1C(=O)O[C@H](c2cc(C(F)(F)F)cc(C(F)(F)F)c2)[C@@H]1C`: in assay [2], it took 23.5 nM to reach half-maximal inhibition (IC50).

In the case of `COc1cc(F)c(C(C)C)cc1-c1ccc(C(C)(C)O)cc1CN1C(=O)O[C@H](c2cc(C(F)(F)F)cc(C(F)(F)F)c2)[C@@H]1C`, it took 71.8 nM to reach half-maximal inhibition in assay [2] (IC50).

In the case of `COc1cc(F)c(C(C)C)cc1-c1ccc(C)cc1CN1C(=O)O[C@H](c2cc(C(F)(F)F)cc(C(F)(F)F)c2)[C@@H]1C`, the Activity in assay [1] is 13.8 mg/dL. Besides, in assay [2], inhibition was half-maximal at 16.7 nM (IC50).

In assay [2], `COc1cc(F)c(C(C)C)cc1-c1ccc(C(C)C)cc1CN1C(=O)O[C@H](c2cc(C(F)(F)F)cc(C(F)(F)F)c2)[C@@H]1C` had an IC50 of 54.1 nM.

In the case of `COc1cc(F)c(C(C)C)cc1-c1ccc(C2CC2)cc1CN1C(=O)O[C@H](c2cc(C(F)(F)F)cc(C(F)(F)F)c2)[C@@H]1C`, the Activity in assay [1] amounted to 20.6 mg/dL. The molecule further returned an IC50 in assay [2] of 24.8 nM.

`COc1cc(F)c(C(C)C)cc1-c1ccc(F)cc1CN1C(=O)O[C@H](c2cc(C(F)(F)F)cc(C(F)(F)F)c2)[C@@H]1C`: the Activity in assay [1] was 8 mg/dL. This molecule also showed an IC50 in assay [2] of 25 nM.

Broadly, the IC50 is the concentration needed to halve the response being measured.
